Measured values reported in ChEMBL document CHEMBL1158676, “Aurilol, a Cytotoxic Bromotriterpene Isolated from the Sea Hare Dolabella auricularia” (J Nat Prod, 1998).
In brackets after ≈: the same amount, converted by molar mass.

Assay: Cytotoxicity against human HeLaS3 cells
Type: functional, cell-based
Settings: HeLa S3

**Q.** For `CC(C)(O)[C@H](O)CC[C@@](C)(O)[C@@H]1CC[C@](C)([C@@H]2CC[C@@H]([C@@]3(C)CC[C@@H]4OC(C)(C)[C@H](Br)CC[C@@]4(C)O3)O2)O1` [AURILOL], which IC50 is on record?
**A.** 4.3 µg/mL (≈ 7.1 µM)
